Several values for one entry are separate records, joined by “and”; a condition that tells them apart may be missing. Equal entries are not always repeated. Inconclusive results and toxic doses are left out. How the source made its calls: active means survival T/C of 150% or more; inactive means T/C below 125% in these data.
Test system: B6C3F1 mice, Lewis lung carcinoma iv, survival T/C
Assay: NCI In Vivo Anticancer Drug Screen. Data for tumor model Lewis Lung Carcinoma (intravenous) in B6C3F1 mice
Conditions: endpoint: median survival time, higher = longer survival
Method in brief: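 Read-out is survival, expressed as the treated-group measurement over the vehicle control-group measurement. Animals bore a transplantable tumor and were given compound.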

[1] = dose: 25.0 mg/kg/injection, schedule: Q01DX009 (ip), vehicle: Klucel (hydroxypropylcellulose) (HPC)
[2] = dose: 50.0 mg/kg/injection, schedule: Q01DX009 (ip), vehicle: Klucel (hydroxypropylcellulose) (HPC)
[3] = dose: 100.0 mg/kg/injection, schedule: Q01DX009 (ip), vehicle: Klucel (hydroxypropylcellulose) (HPC)
[4] = dose: 12.5 mg/kg/injection, schedule: Q01DX009 (ip), vehicle: suspension in saline
[5] = dose: 25.0 mg/kg/injection, schedule: Q01DX009 (ip), vehicle: suspension in saline
[6] = dose: 50.0 mg/kg/injection, schedule: Q01DX009 (ip), vehicle: suspension in saline
[7] = dose: 100.0 mg/kg/injection, schedule: Q01DX009 (ip), vehicle: suspension in saline
[8] = dose: 25.0 mg/kg/injection, schedule: Q01DX009 (ip), vehicle: saline with Tween-80
[9] = dose: 50.0 mg/kg/injection, schedule: Q01DX009 (ip), vehicle: saline with Tween-80
[10] = dose: 100.0 mg/kg/injection, schedule: Q01DX009 (ip), vehicle: saline with Tween-80
[11] = dose: 200.0 mg/kg/injection, schedule: Q01DX009 (ip), vehicle: saline with Tween-80
[12] = dose: 1.56 mg/kg/injection, schedule: Q01DX009 (ip), vehicle: saline with Tween-80
[13] = dose: 3.12 mg/kg/injection, schedule: Q01DX009 (ip), vehicle: saline with Tween-80
[14] = dose: 12.5 mg/kg/injection, schedule: Q01DX009 (ip), vehicle: saline with Tween-80

Measured: T/C

CC(=O)OCC1OC(n2ccc(N)nc2=O)C(OC(C)=O)C1OC(C)=O (configuration not stated)
inactive: dose: 12.5 mg/kg/injection, schedule: Q01DX009 (ip), vehicle: saline 92 % of control | dose: 25.0 mg/kg/injection, schedule: Q01DX009 (ip), vehicle: saline 100 % of control | dose: 50.0 mg/kg/injection, schedule: Q01DX009 (ip), vehicle: saline 101 % of control | dose: 100.0 mg/kg/injection, schedule: Q01DX009 (ip), vehicle: saline 115 % of control | dose: 200.0 mg/kg/injection, schedule: Q01DX009 (ip), vehicle: saline 115 % of control

CN(C)C(=O)SC1=C(c2c(Cl)cccc2Cl)C(=O)c2ccccc21
inactive: [1] 102 % of control | [2] 110 % of control | [3] 105 % of control | dose: 200.0 mg/kg/injection, schedule: Q01DX009 (ip), vehicle: Klucel (hydroxypropylcellulose) (HPC) 108 % of control

CCNC(=O)[B-][N+](C)(C)C
inactive: dose: 12.5 mg/kg/injection, schedule: Q01DX009 (ip), vehicle: Klucel (hydroxypropylcellulose) (HPC) 98 % of control | [1] 103 % of control | [2] 100 % of control | [3] 106 % of control

CN(CCN(C)C(=O)CCOS(C)(=O)=O)C(=O)CCOS(C)(=O)=O
inactive: [4] 101 % of control | [5] 97 % of control | [6] 102 % of control | [7] 107 % of control

CCOC(=O)C1=C(C#N)C2(CCC(OCc3ccccc3)CC2)C(=O)O1 (configuration not stated)
inactive: [4] 94 % of control | [5] 94 % of control | [6] 92 % of control | [7] 95 % of control | dose: 200.0 mg/kg/injection, schedule: Q01DX009 (ip), vehicle: suspension in saline 102 % of control

CC(Cc1ccc(O)c(O)c1)C(C)Cc1ccc(O)c(O)c1 (configuration not stated)
inactive: dose: 12.0 mg/kg/injection, schedule: Q01DX009 (ip), vehicle: saline with Tween-80 100 % of control | [8] 113 % of control | [9] 103 % of control | [10] 94 % of control | [11] 104 % of control | dose: 400.0 mg/kg/injection, schedule: Q01DX009 (ip), vehicle: saline with Tween-80 100 % of control

Cc1cc(N)c2ccccc2[n+]1CCCCCCCCCC[n+]1c(C)cc(N)c2ccccc21
inactive: dose: 0.12 mg/kg/injection, schedule: Q01DX026 (ip), vehicle: dextrose 93 % of control | dose: 0.25 mg/kg/injection, schedule: Q01DX026 (ip), vehicle: dextrose 104 % of control | dose: 0.5 mg/kg/injection, schedule: Q01DX026 (ip), vehicle: dextrose 96 % of control | dose: 0.75 mg/kg/injection, schedule: Q01DX009 (ip), vehicle: dextrose 101 % of control | dose: 1.0 mg/kg/injection, schedule: Q01DX026 (ip), vehicle: dextrose 99 % of control | dose: 1.5 mg/kg/injection, schedule: Q01DX009 (ip), vehicle: dextrose 95 % of control | dose: 2.0 mg/kg/injection, schedule: Q01DX026 (ip), vehicle: dextrose 103 % of control | dose: 3.0 mg/kg/injection, schedule: Q01DX009 (ip), vehicle: dextrose 104 % of control

C[CH2][Sn]1([CH2]C)[O]OC(c2ccccc2)[O]1 (configuration not stated)
inactive: dose: 0.78 mg/kg/injection, schedule: Q01DX009 (ip), vehicle: saline with Tween-80 97 % of control | [12] 100 % of control | [13] 100 % of control | [14] 95 % of control

CCS/C(SC)=C(/c1ccccc1)[P+](c1ccccc1)(c1ccccc1)c1ccccc1
inactive: dose: 0.12 mg/kg/injection, schedule: Q01DX009 (ip), vehicle: Klucel (hydroxypropylcellulose) (HPC) 106 % of control | dose: 0.25 mg/kg/injection, schedule: Q01DX009 (ip), vehicle: Klucel (hydroxypropylcellulose) (HPC) 108 % of control | dose: 0.5 mg/kg/injection, schedule: Q01DX009 (ip), vehicle: Klucel (hydroxypropylcellulose) (HPC) 101 % of control | dose: 1.0 mg/kg/injection, schedule: Q01DX009 (ip), vehicle: Klucel (hydroxypropylcellulose) (HPC) 104 % of control | dose: 1.5 mg/kg/injection, schedule: Q01DX009 (ip), vehicle: Klucel (hydroxypropylcellulose) (HPC) 100 % of control | dose: 2.0 mg/kg/injection, schedule: Q01DX009 (ip), vehicle: Klucel (hydroxypropylcellulose) (HPC) 93 % of control

COc1nc(C(Cl)(Cl)Cl)c(Cl)c(OC)c1Cl
inactive: dose: 25.0 mg/kg/injection, schedule: Q01DX008 (ip), vehicle: Klucel (hydroxypropylcellulose) (HPC) 120 % of control | dose: 50.0 mg/kg/injection, schedule: Q01DX008 (ip), vehicle: Klucel (hydroxypropylcellulose) (HPC) 113 % of control | dose: 100.0 mg/kg/injection, schedule: Q01DX008 (ip), vehicle: Klucel (hydroxypropylcellulose) (HPC) 113 % of control

CO[C@H](/C(C)=C/C=C/C(C)=C/c1coc(C)n1)[C@H](C)[C@H]1C[C@@H](O)[C@@]2(C)O[C@H]2/C=C/[C@@H](C)[C@@H]2C[C@@H](CC(=O)O2)C[C@H]2O[C@@H]2C(=O)O1
inactive: dose: 20.0 micrograms/kg/injection, schedule: Q01DX009 (ip), vehicle: Klucel (hydroxypropylcellulose) (HPC) 96 % of control | dose: 40.0 micrograms/kg/injection, schedule: Q01DX009 (ip), vehicle: Klucel (hydroxypropylcellulose) (HPC) 103 % of control | dose: 80.0 micrograms/kg/injection, schedule: Q01DX009 (ip), vehicle: Klucel (hydroxypropylcellulose) (HPC) 105 % of control

NC(=O)c1ccc[n+](Cc2c(Cl)cccc2Cl)c1
inactive: dose: 5.0 mg/kg/injection, schedule: Q01DX009 (ip), vehicle: saline 104 % of control | dose: 10.0 mg/kg/injection, schedule: Q01DX009 (ip), vehicle: saline 105 % of control | dose: 20.0 mg/kg/injection, schedule: Q01DX009 (ip), vehicle: saline 104 % of control | dose: 40.0 mg/kg/injection, schedule: Q01DX009 (ip), vehicle: saline 91 % of control

CO[C@@H]1[C@H](O)CC[C@]2(CO2)[C@H]1[C@@]1(C)O[C@@H]1CC=C(C)C
inactive: [12] 95 % of control and 101 % of control | [13] 95 % of control and 103 % of control | dose: 6.25 mg/kg/injection, schedule: Q01DX009 (ip), vehicle: saline with Tween-80 93 % of control and 101 % of control | [14] 101 % of control | [8] 106 % of control and 115 % of control | [9] 103 % of control and 107 % of control

COc1cccc(C2NC(=O)c3c(n[nH]c3N)S2)c1O (configuration not stated)
inactive: [14] 114 % of control | [8] 102 % of control | [9] 122 % of control | [10] 99 % of control | [11] 109 % of control

O=c1[nH]cccc1O
inactive: dose: 16.0 mg/kg/injection, schedule: Q01DX009 (ip), vehicle: saline with Tween-80 98 % of control | dose: 32.0 mg/kg/injection, schedule: Q01DX009 (ip), vehicle: saline with Tween-80 94 % of control | dose: 64.0 mg/kg/injection, schedule: Q01DX009 (ip), vehicle: saline with Tween-80 103 % of control | dose: 256.0 mg/kg/injection, schedule: Q01DX009 (ip), vehicle: saline with Tween-80 101 % of control

CCCC(=O)OCC1OC(n2cnc3c(=S)nc[nH]c32)C(OC(=O)CCC)C1OC(=O)CCC (configuration not stated)
inactive: [14] 99 % of control | [8] 99 % of control | [9] 94 % of control

CCOC(=O)Nc1cc2c(c(N)n1)N=C(c1ccccc1)CN2
inactive: dose: 1.25 mg/kg/injection, schedule: Q01DX009 (ip), vehicle: saline with Tween-80 105 % of control | dose: 2.5 mg/kg/injection, schedule: Q01DX009 (ip), vehicle: saline with Tween-80 105 % of control | dose: 5.0 mg/kg/injection, schedule: Q01DX009 (ip), vehicle: saline with Tween-80 100 % of control

— PubChem BioAssay AID276 (DTP/NCI, 2004)
